Data from patent publication US20210236513A1, “NOVEL USES” (ZARODEX THERAPEUTICS LIMITED, priority 2018, published 2021).

Legend:
[1] = tested on: class switched memory B cells, plasmablasts and other B cell subsets
[2] = tested on: circulating B cell subsets; assay: Second observational study (interim), peripheral blood B cell subsets by FACS; format: in vivo, human; conditions: interim analysis
[3] = Infection questionnaire, antibiotic courses and hospital admissions, same case control study; format: in vivo, human
[4] = tested on: bone marrow B cell subsets; assay: Wild type mouse study, bone marrow B cell immunophenotyping by flow cytometry
[5] = tested on: B220+ B cells, plasma cells, germinal centre B cells; assay: CIA model, B cell subsets in spleen and lymph nodes by FACS; format: in vivo, DBA/1 mice
[6] = tested on: anti-type II collagen IgG1 and IgG2a; assay: CIA model, anti-collagen immunoglobulin by ELISA; format: in vivo, DBA/1 mice
[7] = tested on: IgG to Haemophilus influenza B, Pneumococcus and Tetanus; conditions: human, in vivo
[8] = tested on: circulating total IgG, IgA, IgM and pneumococcal-specific IgG; assay: Second observational study (interim), circulating immunoglobulins; format: in vivo, human; conditions: interim analysis
[9] = tested on: collagen-induced arthritis; assay: Collagen-induced arthritis (CIA) model, onset, clinical score and paw-swelling; format: in vivo, DBA/1 mice
Description: Adult (age 13-15 weeks) DBA/1 male mice were purchased from Envigo (Horst, Netherlands). […] 1. […] All experiments were approved by the Clinical Medicine Animal Welfare and Ethical Review Body (AWERB) and by the UK Home Office. DBA/1 mice were immunised with bovine type II collagen in CFA and monitored daily for onset of arthritis. […] Controls received vehicle (saline) alone. Treatment of mice commenced in one experiment on day 1 after immunisation and in a second experiment on day 15 after immunisation. Clinical scores and paw-swelling were monitored for 10 days following onset of arthritis. A clinical scoring system was used as follows. Arthritis severity was scored by an experienced, non-blinded investigator as follows: 0=normal, 1=slight swelling and/or erythema, 2=pronounced swelling, 3=ankylosis. […] Data were analyzed by one-way ANOVA with Tukey's or Dunnett's multiple comparison test or two-way ANOVA with Tukey's multiple comparison test as appropriate. All calculations were made using GraphPad Prism software.

serum IgG, IgA and IgM = assay: Serum immunoglobulins in clozapine patients referred to Immunology clinic; format: in vivo, human
[10] = Wild type mouse study, body weight; format: in vivo, C57BL/6 mice; conditions: 5 mg/kg and 10 mg/kg IP once daily; maximal by 3 days, recovering fully to baseline by day 9
[11] = tested on: specific antibody levels against Haemophilus B (Hib), Tetanus and Pneumococcus; parameters: species or system human; conditions: in vivo
[12] = tested on: serum/plasma IgG, IgA, IgM; conditions: cited from earlier work
[13] = tested on: splenic B cell and T cell populations; assay: Wild type mouse study, spleen immunophenotyping by flow cytometry
[14] = tested on: T follicular helper cells (CD4+ PD1+ CXCR5+); assay: CIA model, T follicular helper cells by FACS; format: in vivo, DBA/1 mice
[15] = tested on: total peripheral blood B-cells from healthy donors differentiating to plasmablasts and plasma cells
[16] = tested on: treatment-resistant schizophrenia; conditions: schizophrenic patients; cited from earlier work
[17] = Michel et al., 2015; cited from earlier work
[18] = tested on: Immunoglobulin levels (IgG, IgA and IgM); assay: Serum immunoglobulin levels by nephelometry, cross-sectional case control study of clozapine-treated vs clozapine-naive patients; format: in vivo, human
[19] = FIG. 3B, referred clozapine patients
[20] = clozapine-treated patients post-exclusion, n=94
[21] = number of admissions, clozapine-treated patients
[22] = 10 mg/kg clozapine IP, 21 days, FIG. 18
[23] = outpatients on clozapine for at least five years (Lozano et al., 2016)
[24] = six weeks treatment (Hinze-Selch et al., 1998)

CN1CCN(C2=Nc3cc(Cl)ccc3Nc3ccccc32)CC1 [Clozapine, clozapine]
CSMB vs healthy controls [1, 19]: significant reduction | Marginal zone B cell numbers vs healthy control [1, 19]: no significant difference | Total B cell numbers vs CVID and healthy controls [1, 19]: similar | Overall lymphopenia or B cell lymphopenia ([1]; human, in vivo): no severe overall lymphopenia or B cell lymphopenia | Overall CD19+ B cell numbers vs clozapine naive ([2]; FIG. 8A-B): not significantly different | Naive (CD19+ CD27-) B cells as a proportion of total CD19+ B cells ([2]; FIG. 9A-C): Small increase | Overall memory B cell pool ([2]; FIG. 10A-C): without perturbation | IgMhi IgDlo memory B cell subpopulation ([2]; FIG. 12A-C): without perturbation | Circulating levels of transitional B cells ([2]; FIG. 13A-C): No significant difference | Circulating levels of marginal zone B cells ([2]; FIG. 14A-C): No significant difference | Class-switched memory B cells (CD27+ IgM- IgD- as % B) ([2]; P=0.06 vs control, FIG. 11A-C): Strong trends to a specific reduction | Levels of plasmablasts ([2]; P=0.07 vs control clozapine naive, FIG. 15A-C): Strong trends to reduction | Admitted to hospital with infection ([3]; clozapine group vs 0.06 in controls): 0.12 per patient year | Antibiotic courses per year: 1-5 courses, percentage of patients [3, 20]: 33.0% | Antibiotic courses per year: >5 courses, percentage of patients [3, 20]: 5.3% | Antibiotic courses per year: nil courses, percentage of patients [3, 20]: 61.7% | Antibiotic courses per year: >5 courses, percentage of patients ([3]; clozapine-treated patients post-exclusion, n=94, listed as clozapine): 5.3% | Admission frequency in 12-month period, all cause [3, 21]: 21 | Admission frequency in 12-month period, infection-related [3, 21]: 15 | Pro-B cell fraction in bone marrow [4, 22]: without any change | Proportion of pre-pro B cells in bone marrow [4, 22]: significant increase | Percentage of immature B cells in bone marrow ([4]; FIG. 19): reduction | Overall B cells in the bone marrow ([4]; any dose of clozapine (2.5, 5, 10 mg/kg IP, 21 days), FIG. 18): No overall reduction | Pre-B cells in bone marrow ([4]; dose-dependent, significant vs control even at 2.5 mg/kg, FIG. 19): reduction | Percentage of proliferating pre-B cells in bone marrow ([4]; reaching significance for the 5 mg/kg dose, FIG. 19): diminished | Proportion of plasma cells in spleen ([5]; 10 mg/kg clozapine given on day 1, FIG. 30): significant reduction | Proportion of B220+ B cells in spleen ([5]; 10 mg/kg from day 1): significantly reduced | Level of GL7 expression on follicular B cells in lymph node ([5]; all clozapine treatment groups vs vehicle, FIG. 32): significantly decreased | Percentage of B220+ B cells in lymph nodes ([5]; all doses and time points (5 or 10 mg/kg from day 1 or day 15), FIG. 29): significantly lower percentage | Lymph node follicular B cells (B220+IgD-Fas+GL7hi) ([5]; all doses/both time points, FIG. 31): Strikingly significant reductions | Reduction of anti-type II collagen IgG1 ([6]; 10 mg/kg from day 15, FIG. 33): reaching statistical significance | Serum anti-type II collagen IgG2a ([6]; 5 or 10 mg/kg from day 1 or day 15, single time point, FIG. 33): no significant impact | Levels of anti-type II collagen IgG1 ([6]; across all doses tested, FIG. 33): nominal reductions | Individuals failing to develop an IgG response above ≥50 mg/L [7]: 73% | Individuals failing to mount a Haemophilus-IgG response ≥1 mcg/ml [7]: 42% | Patients with IgG to Haemophilus influenza B (HiB) <1 mcg/ml at initial assessment [7]: 75% | Patients with Pneumococcus-IgG <50 mg/L at initial assessment [7]: 94% | Patients with Tetanus-IgG <0.1 IU/mL at initial assessment [7]: 38% | Vaccine response of individual referred patient [7]: Failure to responds to | Levels of circulating total IgG, IgA and IgM vs clozapine naive ([8]; FIG. 6A-C): Significantly reduced | IgG antibodies against pneumococcus vs clozapine naive ([8]; FIG. 7): trend to lower | Swelling of the first affected paw ([9]; 10 mg/kg clozapine from day 1, FIG. 27): reduced swelling of the first affected paw | Arthritis onset ([9]; both doses of clozapine (5, 10 mg/kg) from day 1): extremely effective in delaying arthritis onset | Overall clinical score ([9]; both doses, administered on day 1, FIG. 27): reduced overall clinical score | Onset of arthritis post-immunisation ([9]; clozapine 5 or 10 mg/kg IP daily from day 1 or day 15, FIGS. 25 and 26): significantly effective in delaying the onset | Incidence of CIA ([9]; most apparent when dosed just after CII immunisation, FIG. 26): reduces the incidence | Total number of affected paws compared to vehicle control ([9]; significant with dosing at D1, FIG. 28): reduced the total number of affected paws | Serum IgA after clozapine was stopped (serum IgG, IgA and IgM; one patient, after 24 months): 0.29 g/L | Serum IgM after clozapine was stopped (serum IgG, IgA and IgM; one patient, after 24 months): 0.49 g/L | Mean IgA (serum IgG, IgA and IgM; referred clozapine patients): 0.34 g/L | Mean IgG (serum IgG, IgA and IgM; referred clozapine patients): 3.6 g/L | Mean IgM (serum IgG, IgA and IgM; referred clozapine patients): 0.21 g/L | Body weight [10]: transient fall in body weight | IgM-Pneumococcus, mean (SEM in the line below) [11]: 58.5 U/L | IgA, IgG, absolute neutrophil count and white blood cell count vs control group [12, 23]: no differences were found | Mean plasma levels of IgM vs control group [12, 23]: overall decrease | IgA or IgM concentrations, pattern of autoantibodies [12, 24]: no significant effect | Serum concentrations of IgG [12, 24]: significant increases | Activated T cells (B220+TCR-β+) in spleen compared to control ([13]; FIG. 21): reduced in dose-dependent fashion | Other splenic cell populations (B220-TCR-β-) ([13]; FIG. 21): No effect | Percentage of splenic T cells (B220-TCR-β+) ([13]; FIG. 21): reciprocal increase | Splenic follicular B cell subset ([13]; FIG. 22): no specific reductions | Splenic marginal zone B cell subset ([13]; FIG. 22): no specific reductions | Proportion of T2 B cells in the spleen ([13]; across all doses of clozapine, FIG. 22): small increase | Percentage of splenic B cells (B220+TCR-β-) of total live splenocytes ([13]; clozapine at 5 mg/kg and 10 mg/kg, FIG. 21): significantly lower percentage | Proportion of transitional stage 1 (T1) B cells in the spleen ([13]; including at the 2.5 mg/kg dose, FIG. 22): mildly reduced proportion | Germinal centre cells in the spleen versus control or haloperidol ([13]; steady state, FIG. 22): no differences observed | Proportions of CD4+PD1+CXCR5+ T follicular helper cells in lymph node or spleen ([14]; 5 or 10 mg/kg from day 1 or day 15, FIG. 34): did not significantly affect | Expression of PD-1 in lymph node T follicular helper cells (MFI) ([14]; all doses and time points, FIG. 35): Reduced expression of PD-1 | CXCR5 expression on T follicular helper cells (MFI) ([14]; dosed from day 1, lymph node and spleen, FIG. 36): significant reductions | Expression of CCR7 on germinal centre resident T follicular helper cells ([14]; lymph node and spleen, FIG. 37): reduction in expression of CCR7 | Direct toxicity to differentiating B-cells [15]: no direct toxicity effect | Previously treatment refractive patients in whom effective [16]: approximately 60% | CNS penetration [17]: high levels of CNS penetration | Concentrations of IgG, IgA and IgM vs clozapine-naive control group ([18]; human, in vivo): significantly reduced | Effect of duration of clozapine therapy on serum IgG ([18]; p 0.014, FIG. 2, not observed in clozapine-naive patients): associated with lower serum IgG levels
